Results: US20160271513A1, “DRYING TECHNIQUES FOR MICROFLUIDIC AND OTHER SYSTEMS” (PRESIDENT AND FELLOWS OF HARVARD COLLEGE, priority 2013, published 2016)
One block for each compound: values may come before it.

Experiments:
[1] = room temperature
Protocol: To calculate the time available for crystalline nuclei to form, the saturation concentration of NaCl was measured in water at room temperature to be 6.3 mol/l.

[2] = Structure and storage stability of spray-dried drug nanoparticles by X-ray diffraction; format: physicochemical
Protocol: While the characteristic size below which particles were entirely amorphous is system-specific, the suppression of nucleation in small droplets relies on a generally applicable physical principle. […] To test this expectation, the structure of spray-dried clotrimazole, estradiol, and danazol was examined using X-ray diffraction (XRD). To keep the nucleation time the same, they were dissolved at 10% of their saturation concentration. In agreement with the above, these spray-dried drug nanoparticles were amorphous.
Production of amorphous drugs may require the addition of excipients. However, despite the presence of excipients, these drugs tend to crystallize with time leading to a change in their dissolution kinetics; this prevents their application in industry. […] These drugs all had glass transition temperatures, Tg, above room temperature; they were therefore glasses at room temperature.
XRD. X-ray diffraction was performed on spray-dried nanoparticles collected onto a one-side polished (100) Si wafer for 11 h. Measurements were acquired on a XDS2000 instrument (Scintac Inc.) using a Cu Kα (K alpha) source with a wavelength λ=0.154056 nm. The angle 2θ was varied between 2 and 70° at a rate of 1°/min.
It was expected to crystallize over time if stored at room temperature even if it is initially fully amorphous.
To test if the nebulator also allowed production of amorphous nanoparticles from materials with a Tg […] room temperature, which would be a glass at room temperature, clotrimazole, estradiol, and danazol, all poorly water soluble drugs with Tgs above 20° C., were spry dried. The size of the spray dried nanoparticles was determined by the initial solute concentration and the initial drop size. To ensure similar sizes of the spray dried nanoparticles, the initial solute concentration was fixed to 5 mg/ml. […] Thus, the nebulator allowed formulation of poorly water soluble drugs as amorphous nanoparticles.
To ease the handling drugs, fenofibrate was co-spray dried with different types of excipients. […] Four different types of Pluronics were compared: F68 and F127 are solids at room temperature and Pluronics P84 and P104 are pastes at room temperature.
By analogy to Pluronics, drugs spray dried from solutions containing equal weights of drugs and excipients were crystalline. By contrast, increasing the weight fraction of PVP five-fold results in XRD-amorphous danazol nanoparticles, in agreement to danazol nanoparticles formulated using the microfluidic spray drier.
To maintain the stability of spray dried amorphous nanoparticles and facilitate their handling by embedding them in an excipient matrix, PVP was deposited on a Si-wafer and subsequently drugs were spray dried into the PVP matrix. […] However, because excipients were not required to make the drug amorphous but rather to ease their handling, this procedure is generally applicable to the formulation of many different types of drugs, by contrast to the solid dispersions where the appropriate excipients must be selected for each system individually. Thus, the nebulator used in this example allowed the formulation of amorphous drug nanoparticles that optionally could be sprayed into an excipient matrix to facilitate their handling.

[3] = Crystalline fraction of spray-dried nanoparticles by differential scanning calorimetry; format: physicochemical
Protocol: The size of inorganic nanoparticles can influence their structure.
DSC. Differential scanning calorimetry was performed on spray-dried nanoparticles that are collected in an aluminium based Tzero DSC pan. To obtain sufficient amounts of samples, nanoparticles were collected for 11 h before being sealed in the DSC pan with a Tzero Hermetic Lid (TA Instruments). DSC was measured on a DSC Q200 at a nitrogen flow rate of 50 ml/min (TA instruments); the temperature was increased from 40° C. to 85° C. at a rate of 1° C./min and subsequently the sample was cooled to 25° C. at the same rate. To quantify the amount of nanoparticles, thermogravimetry analysis (TGA) was performed on these samples after completing the DSC analysis. For this, the hermetically sealed pans were opened and TGA was performed on these samples by increasing the temperature from 25° C. to 400° C. at a rate of 10° C./min under a N2 flow of 10 ml/min (Q5000, TA instrument). The absolute mass loss was measured between 100° C. and 300° C. and the DSC data was normalized accordingly.

[4] = spray-dried from ethanol without excipients, 0.28 MPa
[5] = spray-dried without excipients, stored under ambient conditions

SMILES: [Cl-].[Na+] [NaCl]
saturation concentration of NaCl in water [1]: 6.3 mol/L

structure of spray-dried nanoparticles (XRD) [2, 4]: amorphous
SMILES: Clc1ccccc1C(c1ccccc1)(c1ccccc1)n1ccnc1 [clotrimazole]
crystallization on storage [2, 5]: did not crystallize if stored under ambient conditions for at least four weeks

structure of spray-dried nanoparticles (XRD) ([2]; co-spray dried with PVP, PVP five times the drug): XRD-amorphous
structure of spray-dried nanoparticles (XRD) ([2]; pure drug spray dried onto a PVP matrix): XRD-amorphous
structure of spray-dried nanoparticles (XRD) [2, 4]: amorphous
SMILES: C#C[C@]1(O)CC[C@H]2[C@@H]3CCC4=Cc5oncc5C[C@]4(C)[C@H]3CC[C@@]21C [danazol]
structure of spray-dried nanoparticles (XRD) ([2]; co-spray dried with Pluronics F68, F127, P84 or P104, equal weights): contain a significant fraction of crystalline regions
crystallization on storage ([2]; co-spray dried with equal weight of Pluronics (F68, F127, P84, P104), two weeks under ambient conditions): this fraction markedly increases after storing the sample for two weeks under ambient conditions
crystallization on storage [2, 5]: did not crystallize if stored under ambient conditions for at least four weeks

crystalline fraction from area of the melting peak ([3]; 25 nm large particles): 6 vol %
crystalline fraction from area of the melting peak ([3]; particles with a diameter of 20 nm): 3 vol %
SMILES: CC(C)OC(=O)C(C)(C)Oc1ccc(C(=O)c2ccc(Cl)cc2)cc1 [fenofibrate]
